In the series the test system is Caco-2. The experiment in a line: Permeability of the compound from apical to basolateral side in human Caco2 cells. It is filed as ADME, cell-based.

With `CS(=O)(=O)c1cccc(Cn2ccc(N3CCc4[nH]nc(-c5ccncc5)c4C3)cc2=O)c1`, the permeability entry is “impermeable”.

Turning to `O=c1cc(N2CCc3[nH]nc(-c4ccncc4)c3C2)cc[nH]1`, the permeability entry is listed as “permeable”.

(Values after ChEMBL document CHEMBL3603749, “Ligand efficient tetrahydro-pyrazolopyridines as inhibitors of ERK2 kinase” (Bioorg Med Chem Lett, 2015).)
